For orientation: IC50 means the point on the concentration scale where inhibition reaches its midpoint.

Assay [1] has as its target T1, recombinant human CD38 Protein (Homo sapiens, UniProt P28907).
T1 construct: purchased R&D System
T1 sequence (P28907 1-300): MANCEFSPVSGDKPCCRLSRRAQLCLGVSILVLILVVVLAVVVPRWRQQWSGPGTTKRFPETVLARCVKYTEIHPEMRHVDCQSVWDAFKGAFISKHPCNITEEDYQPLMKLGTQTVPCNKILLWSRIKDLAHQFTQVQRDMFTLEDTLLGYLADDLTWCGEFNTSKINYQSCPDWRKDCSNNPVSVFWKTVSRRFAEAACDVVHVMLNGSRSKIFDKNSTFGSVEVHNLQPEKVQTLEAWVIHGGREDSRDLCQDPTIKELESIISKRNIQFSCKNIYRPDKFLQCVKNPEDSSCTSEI
Put plainly: Fluorescence-based NAD+ hydrolase activity assay with human recombinant CD38 protein (Assay 3). Conditions: read-out: Assay 3 Arithmetic mean IC50. The assay is classed as biochemical. As to the method: This protocol was modified from the following references (Muller et al. (1983); (Schultz et al. (2018); (Matalonga et al. (2017); and de Oliveira et al. (2018), supra.
NAD+ hydrolase activity of the human recombinant CD38 protein treated with test compounds was measured using a fluorescence-based assay. Briefly, recombinant human CD38 Protein (R&D System) was resuspended in 44 μl/well of Sucrose-Tris Buffer (Sucrose 0.25 M, Tris pH 7.4 40 mM) and plated in a 96-well black plate (CORNING) at a density of 10 ng/well.
Each test compound was received in a powder state and dissolved in DMSO as a 25 mM stock solution. Each test compound was serially diluted in order to generate a dose-response curve. The dilution series of each test compound in DMSO was prepared at 50× the concentrations to be assayed. Each test compound was diluted to generate a 5-fold dilution series of 8 concentrations from 20 μM to 0.256 nM in order to assay 8 final concentrations ranging from ranging from 400 nM to 25.6 pM. One μl of the 50× concentration compound series was added to each well of the plate containing 10 ng protein in Sucrose-Tris buffer.
The reaction was started adding nicotinamide 1,N^6-etheno-adenine dinucleotide (Sigma Aldrich) to reach a final concentration of 80 µM. The samples were excited at 321-15 nm and the emission of fluorescence was measured at 410-20 nm at 37° C. every minute for 1 hr in a Clariostar® microplate reader (BMG LABTECH). NAD+ hydrolase activity was calculated as the slope of the linear portion of the fluorescence-time curve using the MARS data analysis software (BMG LABTECH). The data were uploaded in the Collaborative Drug Design (CDD) Software and for each compound the IC50 was calculated by the software. […] For each plate, the z-factor was also calculated as a plate quality using the CDD software.

The target in assay [2] is T1, recombinant human CD38 Protein. Put plainly: Fluorescence-based NAD+ cyclase activity assay with human recombinant CD38 protein (Assay 2). The format is biochemical. Conditions: read-out: Assay 2 Arithmetic mean IC50. As to the method:
This protocol was modified from the de Oliveira et al., 2018 reference, supra.
NAD+ cyclase activity of the human recombinant CD38 protein treated with test compounds was measured using a fluorescence-based assay. Briefly, recombinant human CD38 Protein (R&D System) was resuspended in 44 μl/well of Sucrose-Tris Buffer (Sucrose 0.25 M, Tris pH 7.4 40 mM) and plated in a 96-well black plate (CORNING) at a density of 125 ng/well.
Each test compound was received in a powder state and dissolved in DMSO as a 25 mM stock solution. Each test compound was serially diluted in order to generate a dose-response curve. The dilution series of each test compound in DMSO was prepared at 50 times the concentrations to be assayed. Each test compound was diluted to generate a 5-fold dilution series of 8 concentrations from 100 μM to 32 nM in order to assay 8 final concentrations ranging from 2 μM to 0.64 nM. One μl of the 50× concentration compound series was added to each well of the plate containing 125 ng of protein in Sucrose-Tris buffer.
The reaction was started adding nicotinamide guanine dinucleotide (NGD+) (Sigma Aldrich) to reach a final concentration of 150 µM. The samples were excited at 337-15 nm, and the emission of fluorescence was measured at 442-20 nm at 37° C. every minute for 1 hr in a Clariostar microplate reader (BMG LABTECH). NAD+ cyclase activity was calculated as the slope of the linear portion of the fluorescence-time curve using the MARS data analysis software (BMG LABTECH). The data were uploaded in the Collaborative Drug Design (CDD) Software, and for each compound the IC50 was calculated by the software. For each plate, the z-factor was also calculated as a plate quality using the CDD software.

A value given as a limit tells only on which side of the number the result lay.

Take `CNC(=O)c1ccc(NC(=O)c2cccc(-n3ccnc3)n2)cn1` [Compound 2]: the IC50 in assay [1] is under 1 nM; in assay [2], 1 to 50 nM.

For the compound `NC(=O)c1ccc(NC(=O)c2cccc(-n3ccnc3)n2)cn1` [Compound 3], the IC50 in assay [1] and in assay [2] was 1 to 50 nM throughout.

For `Cc1cc(NC(=O)c2cccc(-n3ccnc3)n2)cc(C)n1` [Compound 7], the IC50 fell in the range of 1 to 50 nM in assay [1] and 1000 to 10000 nM in assay [2].

As for `O=C(Nc1ccnc(F)c1)c1cccc(-n2ccnc2)n1` [Compound 8], the figures for the IC50 in assay [1] and in assay [2] were 1 to 50 nM and 51 to 1000 nM, respectively.

`O=C(Nc1ccc(C(F)(F)F)nc1)c1cccc(-n2ccnc2)n1` [Compound 9]: the IC50 in assay [1] lay in the range of 1 to 50 nM; in assay [2], 51 to 1000 nM.

`Cc1cc(NC(=O)c2cccc(-n3ccnc3)n2)ccn1` [Compound 11]: the half-inhibitory concentration (IC50) in assay [1] fell in the range of 1 to 50 nM; in assay [2] it was 51 to 1000 nM.

With `COc1cc(NC(=O)c2cccc(-n3ccnc3)n2)ccn1` [Compound 12], the half-inhibitory concentration (IC50) in assay [1] lay in the range of 1 to 50 nM; in assay [2], 51 to 1000 nM.

Consider `O=C(Nc1ccncc1)c1cccc(-n2ccnc2)n1` [Compound 13], for which the IC50 in assay [1] lay in the range of 1 to 50 nM; in assay [2] it was 51 to 1000 nM.

In the case of `Cc1ccc(NC(=O)c2cccc(-n3ccnc3)n2)cn1` [Compound 14], the IC50 in assay [1] was in the range of 1 to 50 nM; in assay [2], 1000 to 10000 nM.

As to `CC(=O)N(C)c1ccc(NC(=O)c2cccc(-n3ccnc3)n2)cn1` [Compound 15], the half-maximal inhibitory concentration (IC50) in assay [1] is 1 to 50 nM; in assay [2], 1000 to 10000 nM.

Take `CC(=O)Nc1ccc(NC(=O)c2cccc(-n3ccnc3)n2)cn1` [Compound 16]: the 50% inhibitory concentration (IC50) was 1 to 50 nM in assay [1] and 51 to 1000 nM in assay [2].

Turning to `COc1ccc(NC(=O)c2cccc(-n3ccnc3)n2)cn1` [Compound 18], the results for the IC50 in assay [1] and in assay [2] were 1 to 50 nM and 1000 to 10000 nM, respectively.

For the compound `O=C(Nc1cccnc1)c1cccc(-n2ccnc2)n1` [Compound 20], the half-inhibitory concentration (IC50) in assay [1] lay within 1 to 50 nM; in assay [2], 1000 to 10000 nM.

On to `O=C(Nc1ccc(F)nc1)c1cccc(-n2ccnc2)n1` [Compound 22], for which the half-inhibitory concentration (IC50) in assay [1] was 1 to 50 nM; in assay [2], 1000 to 10000 nM.

Regarding `O=C(Nc1ccncn1)c1cccc(-n2ccnc2)n1` [Compound 24], the IC50 was in the range of 1 to 50 nM in assay [1] and 1000 to 10000 nM in assay [2].

Regarding `COC(=O)c1ccc(NC(=O)c2cccc(-n3ccnc3)n2)cn1` [Compound 27], the IC50 in assay [1] lay within 1 to 50 nM; in assay [2], 51 to 1000 nM.

On to `O=C(Nc1ccnc(C(F)(F)F)c1)c1cccc(-n2ccnc2)n1` [Compound 28], for which the figures for the half-inhibitory concentration (IC50) in assay [1] and in assay [2] were 1 to 50 nM and 1000 to 10000 nM, respectively.

Take `O=C(Nc1ccnc(C(F)(F)F)c1)c1cc(OCc2ccccc2)cc(-n2ccnc2)n1` [Compound 29, 4-(benzyloxy)-6-(1H-imidazol-1-yl)-N-[2-(trifluoromethyl)pyridin-4-yl]pyridine-2-carboxamide]: the IC50 was in the range of 1 to 50 nM in assay [1] and 51 to 1000 nM in assay [2].

Consider `O=C(Nc1ccnc(C(F)(F)F)c1)c1cc(OCC2CCOCC2)cc(-n2ccnc2)n1` [Compound 30, 6-(1H-imidazol-1-yl)-4-((tetrahydro-2H-pyran-4-yl)methoxy)-N-(2-(trifluoromethyl)pyridin-4-yl)picolinamide], for which the values for the half-maximal inhibitory concentration (IC50) in assay [1] and in assay [2] were 1 to 50 nM and 51 to 1000 nM, respectively.

As for `COCCOc1cc(C(=O)Nc2ccnc(C(F)(F)F)c2)nc(-n2ccnc2)c1` [Compound 31, 6-(1H-imidazol-1-yl)-4-(2-methoxyethoxy)-N-(2-(trifluoromethyl)pyridin-4-yl)picolinamide], the concentration for half-maximal inhibition (IC50) in assay [1] lay in the range of 1 to 50 nM; in assay [2] it was 51 to 1000 nM.

For `O=C(Nc1ccnc(C(F)(F)F)c1)c1cc(OC2CC2)cc(-n2ccnc2)n1` [Compound 32, 4-cyclopropoxy-6-(1H-imidazol-1-yl)-N-(2-(trifluoromethyl)pyridin-4-yl)picolinamide], the concentration for half-maximal inhibition (IC50) is under 1 nM in assay [1] and 51 to 1000 nM in assay [2].

Take `CN(C)CCOc1cc(C(=O)Nc2ccnc(C(F)(F)F)c2)nc(-n2ccnc2)c1` [Compound 33]: the values for the IC50 in assay [1] and in assay [2] were under 1 nM and 51 to 1000 nM, respectively.

Consider `CC1(Oc2cc(C(=O)Nc3ccnc(C(F)(F)F)c3)nc(-n3ccnc3)c2)COC1` [Compound 34, 6-(1H-imidazol-1-yl)-4-((3-methyloxetan-3-yl)oxy)-N-(2-(trifluoromethyl)pyridin-4-yl)picolinamide], for which the results for the concentration for half-maximal inhibition (IC50) in assay [1] and in assay [2] were 1 to 50 nM and 51 to 1000 nM, respectively.

On to `COc1cc(C(=O)Nc2ccnc(C(F)(F)F)c2)nc(-n2ccnc2)c1` [Compound 35, 6-(1H-imidazol-1-yl)-4-methoxy-N-(2-(trifluoromethyl)pyridin-4-yl)picolinamide], for which the IC50 in assay [1] lay within 1 to 50 nM; in assay [2], 51 to 1000 nM.

For `COc1cc(C(=O)Nc2cccnc2)nc(-n2ccnc2)c1` [Compound 36], the IC50 in assay [1] was in the range of 1 to 50 nM; in assay [2], 51 to 1000 nM.

In the case of `COc1cc(C(=O)Nc2ccnc(C(F)(F)F)c2)nc(-n2ccnc2)n1` [Compound 37, 2-(1H-imidazol-1-yl)-6-methoxy-N-(2-(trifluoromethyl)pyridin-4-yl)pyrimidine-4-carboxamide], the half-maximal inhibitory concentration (IC50) in assay [1] was under 1 nM; in assay [2] it was 51 to 1000 nM.

On to `CCOc1cc(C(=O)Nc2ccnc(C(F)(F)F)c2)nc(-n2ccnc2)n1` [Compound 38], for which the IC50 in assay [1] was under 1 nM; in assay [2], 51 to 1000 nM.

On to `COCCOc1cc(C(=O)Nc2ccnc(C(F)(F)F)c2)nc(-n2ccnc2)n1` [Compound 39, 2-(1H-imidazol-1-yl)-6-(2-methoxyethoxy)-N-(2-(trifluoromethyl)pyridin-4-yl)pyrimidine-4-carboxamide], for which the figures for the concentration for half-maximal inhibition (IC50) in assay [1] and in assay [2] were under 1 nM and 1 to 50 nM, respectively.

For the compound `O=C(Nc1ccnc(C(F)(F)F)c1)c1cc(OC2CC2)nc(-n2ccnc2)n1` [Compound 40], the IC50 was 1 to 50 nM in assay [1] and 51 to 1000 nM in assay [2].

Consider `Cn1cncc1-c1cccc(C(=O)Nc2cccnc2)n1` [Compound 42, 6-(1-methyl-1H-imidazol-5-yl)-N-(pyridin-3-yl)picolinamide], for which the half-inhibitory concentration (IC50) in assay [1] is 1 to 50 nM; in assay [2] it was 1000 to 10000 nM.

In the case of `Cn1cncc1-c1cccc(C(=O)Nc2ccc(C(F)(F)F)nc2)n1` [Compound 43], the values for the IC50 in assay [1] and in assay [2] were 1 to 50 nM and 51 to 1000 nM, respectively.

Turning to `Cc1cc(C(=O)Nc2ccncc2)nc(-c2nccn2C)c1` [Compound 45], the IC50 in assay [1] was in the range of 1 to 50 nM; in assay [2], 51 to 1000 nM.

On to `Cn1ccnc1-c1cccc(C(=O)Nc2ccc(C(F)(F)F)nc2)n1` [Compound 47], for which the IC50 lay in the range of 1 to 50 nM in assay [1] and 51 to 1000 nM in assay [2].

Consider `Cn1ccnc1-c1cccc(C(=O)Nc2cccnc2)n1` [Compound 48], for which the 50% inhibitory concentration (IC50) in assay [1] was in the range of 1 to 50 nM; in assay [2], 1000 to 10000 nM.

Consider `Cc1cc(C(=O)Nc2cccnc2)nc(-n2ccnc2)n1` [Compound 49, 2-(1H-imidazol-1-yl)-6-methyl-N-(pyridin-3-yl)pyrimidine-4-carboxamide], for which the values for the IC50 in assay [1] and in assay [2] were under 1 nM and 1 to 50 nM, respectively.

As for `Cc1cc(C(=O)Nc2ccncc2)nc(-n2ccnc2)n1` [Compound 50], the IC50 in assay [1] was under 1 nM; in assay [2] it was 1 to 50 nM.

The values are drawn from patent US12509451B2, “Heteroaryl amide inhibitors of CD38” (NAPA THERAPEUTICS LTD., priority 2020, dated 2025).
